Reference: patent US7105516B2, “Compounds for the treatment of premature ejaculation” (Bristol-Myers Squibb Company, priority 2002, dated 2006)
Like-named read-outs stand apart in the source and are kept apart here.

Legend:
[1] = molecular target: T1, human serotonin transporters (Homo sapiens, UniProt P31645); assay: Serotonin Transporter Binding Assay ([3H]-citalopram displacement, HEK-hSERT cell membranes); details: 1 nM [3H]-citalopram, 1 hr at 25° C.
T1 construct: expressed in transfected cells; membrane homogenates
Method: HEK-293 cells that stably express human serotonin transporters (HEK-hSERT cells) were grown at 37° C. in 5% CO2 as a monolayer in medium consisting of EMEM supplemented with 10% fetal bovine serum and G418 sulfate (500 μg/mL). […] Cells were transferred from plates to polypropylene tubes (16×100 mm), centrifuged at 1,200×g for 5 min and were frozen at −80° C. until assay. Following centrifugation, pellets were resuspended by homogenization in buffer consisting of 50 mM Tris (pH 7.7 at 25° C.), 120 mM NaCl and 5 mM KCl and then centrifuged at 32,000×g for 10 min. Following centrifugation, supernatants were discarded and pellets were resuspended in buffer consisting of 50 mM Tris (pH 7.4 at 25° C.), 150 mM NaCl and 5 mM KCl. Membrane homogenates (200 μl/plate) were incubated with 1 nM [^3H]-citalopram (specific activity=85 Ci/mMol) and increasing concentrations of test compounds for 1 hr at 25° C. in a total volume of 250 μl. The assay buffer consisted of 50 mM Tris (pH 7.4 at 25° C.), 120 mM NaCl and 5 mM KCl (pH 7.4 with conc. HCl). Plates were incubated for 1 hr at 25° C., then filtered through 0.5% PEI treated Whatman GF/B filters using a Brandel cell harvester. Filters were washed three times with 3 mL of ice-cold tris wash buffer. Non-specific binding was defined with 10 μM fluoxetine. Amount of radioligand bound in the presence and absence of competitor was analyzed by plotting (−)log drug concentration versus the amount of radioligand specifically bound. The midpoint of the displacement curve (IC50, nM), signifies the potency.

[2] = molecular target: T2, human norepinephrine transporters (Homo sapiens, UniProt P23975); assay: Norepinephrine Transporter Binding Assay ([3H]-nisoxetine displacement, hNET cell membranes); details: 2.7 nM [3H]-nisoxetine, 1 hr at 4° C., read-out: NE reuptake binding Ki
T2 construct: the text also calls them 'HEK-hNET cells'); membrane homogenates
Method: MDCK cells that stably express human norepinephrine transporters (HEK-hNET cells) were supplied by Receptor Biology, Inc. Pellets were resuspended by homogenization in buffer consisting of 50 mM Tris (pH 7.4 at 25° C.), 120 mM NaCl and 5 mM KCl. Membrane homogenates (200 μl/well, 8 ug protein) were incubated with 2.7 nM [^3H]-nisoxetine (specific activity=80 Ci/mMol) and increasing concentrations of test compounds for 1 hr at 4° C. in a total volume of 250 μl. The assay buffer consisted of 50 mM Tris (pH 7.4 at 25° C.), 120 mM NaCl and 5 mM KCl (pH 7.4 with conc. HCl). Plates were incubated for 1 hr at 4° C., then filtered through 0.5% PEI treated Whatman GF/B filters using a Brandel cell harvester. Filters were washed three times with 3 mL of ice-cold tris wash buffer. Non-specific binding was defined with 10 μM desipramine. Amount of radioligand bound in the presence and absence of competitor was analyzed by plotting (−)log drug concentration versus the amount of radioligand specifically bound. The midpoint of the displacement curve (IC50, nM), signifies the potency. Ki values were calculated using the method of Cheng and Prusoff (1973).

[3] = read-out: 5-HT reuptake binding Ki

T1 sequence (P31645 whole entry): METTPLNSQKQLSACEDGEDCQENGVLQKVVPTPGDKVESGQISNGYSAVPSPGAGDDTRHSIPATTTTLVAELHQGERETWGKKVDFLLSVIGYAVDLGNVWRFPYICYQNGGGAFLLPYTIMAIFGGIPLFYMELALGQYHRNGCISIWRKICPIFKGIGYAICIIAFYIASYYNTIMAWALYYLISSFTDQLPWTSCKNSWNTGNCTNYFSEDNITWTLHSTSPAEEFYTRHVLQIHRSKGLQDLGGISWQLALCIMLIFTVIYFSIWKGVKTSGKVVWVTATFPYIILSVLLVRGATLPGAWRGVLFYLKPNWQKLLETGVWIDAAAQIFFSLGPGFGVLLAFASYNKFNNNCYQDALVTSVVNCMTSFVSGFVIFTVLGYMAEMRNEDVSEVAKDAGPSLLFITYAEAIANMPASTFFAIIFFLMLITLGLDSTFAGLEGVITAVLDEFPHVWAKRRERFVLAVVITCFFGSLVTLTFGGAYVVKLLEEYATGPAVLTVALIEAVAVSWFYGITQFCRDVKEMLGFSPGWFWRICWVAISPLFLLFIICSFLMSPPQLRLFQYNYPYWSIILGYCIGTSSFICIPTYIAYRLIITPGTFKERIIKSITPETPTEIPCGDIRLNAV
T2 sequence (P23975 whole entry): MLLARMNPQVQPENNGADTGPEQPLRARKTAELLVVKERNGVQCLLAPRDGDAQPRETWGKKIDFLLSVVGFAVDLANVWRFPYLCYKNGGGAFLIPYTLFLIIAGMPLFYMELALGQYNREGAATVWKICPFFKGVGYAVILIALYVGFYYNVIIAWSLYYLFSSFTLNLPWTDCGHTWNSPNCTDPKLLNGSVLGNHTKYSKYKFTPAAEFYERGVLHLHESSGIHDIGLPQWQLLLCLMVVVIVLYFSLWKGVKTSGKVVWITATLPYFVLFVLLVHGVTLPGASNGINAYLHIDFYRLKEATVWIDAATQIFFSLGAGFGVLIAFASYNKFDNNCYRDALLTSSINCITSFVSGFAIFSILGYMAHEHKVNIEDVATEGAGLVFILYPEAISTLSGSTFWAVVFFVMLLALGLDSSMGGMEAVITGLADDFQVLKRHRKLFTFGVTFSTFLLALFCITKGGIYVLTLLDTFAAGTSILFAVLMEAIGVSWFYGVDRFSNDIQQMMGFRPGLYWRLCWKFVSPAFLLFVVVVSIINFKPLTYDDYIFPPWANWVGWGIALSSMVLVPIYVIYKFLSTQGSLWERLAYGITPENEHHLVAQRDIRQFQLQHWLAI

Compound | Ki [1, 3] | Ki [2] | Ki ([1]; 5-HT reuptake binding Ki)
CN(C)C[C@H]1CCC[C@@H]1c1ccc2c(c1)c(C#N)cn2C (relative stereo) [Example 41, Trans-5-(2-dimethylaminomethyl-cyclopentyl)-1-methyl-1H-indole-3-carbonitrile] | 100 to 500 nM | > 1000 nM | 
CNC[C@@H]1CCC[C@@H]1c1ccc2[nH]cc(C#N)c2c1 (relative stereo) [Example 42, Cis-5-(methylaminomethyl-cyclopentyl)-1H-indole-3-carbonitrile] | 10 to 100 nM | 100 to 500 nM | 
CC([C@H]1CCCC1c1c[nH]c2ccc(C#N)cc12)N(C)C (single isomer, unassigned; diastereomer a) [Example 46, (+/−) trans-3-[2-(1-dimethylaminoethyl)cyclopentyl]-1H-indole-5-carbonitrile,diastereomer A] |  | > 1000 nM | < 1 nM
CN(C)C[C@@H]1CCC[C@H]1c1c[nH]c2ccc(C#N)cc12 (single isomer, unassigned; enantiomer a) [Example 44] |  | > 1000 nM | 10 to 100 nM
CN(C)C[C@H]1CCC[C@@H]1c1c[nH]c2ccc(C#N)cc12 (single isomer, unassigned; enantiomerb) [Example 45] |  | > 1000 nM | < 1 nM
